Measured values as given in patent publication US12109184B2, “Personalized methods of treating cancer” (CANCER RESEARCH TECHNOLOGY LIMITED, priority 2020, dated 2024).

How the values were obtained:
[1] = tested on: SW480 and MDA-MB-231 cells; assay: Cell counting, rescue by cysteine precursors during cysteine starvation; format: cell-based; conditions: supplement at 0.8 mM
Procedure: HCT116, SW480, MDA-MB-468, MDA-MB-231, AsPC-1, BxPC-3, CFPAC-1, MIAPaCa-2, PANC-1, Panc10.05, SW1990, U-251, LN-18, LN-229, T98G, U-343, A-172 cells were used. Cell lines were authenticated using Short Tandem Repeat (STR) profiling and tested for mycoplasma. Colorectal and breast cancer cell lines were grown in Dulbecco's Modified Eagle Medium (DMEM), pancreatic ductal adenocarcinoma (PDAC) cell lines were grown in Roswell Park Memorial institute (RPMI) 1640. All cell lines were supplemented with penicillin-streptomycin, amphotericin, 2 mM L-glutamine, and 10% fetal bovine serum (FBS). Cells were kept at 37° C. in 5% CO2 in a humidified cell culture incubator. A formulated medium lacking cysteine, cystine, methionine, and serine was used as a base for creating experimental media. The base medium formulation contained 0.2 mM L-histidine, 0.4 mM L-isoleucine, 0.4 mM L-leucine, 0.4 mM L-lysine, 0.2 mM L-phenylalanine, 0.4 mM L-threonine, 0.08 mM L-tryptophan, 0.4 mM L-valine, 0.2 mM L-arginine, 2 mM L-glutamine, 0.2 mM L-tyrosine, 0.4 mM L-alanine, 0.3 mM L-proline, 0.15 mM L-glutamic acid, 0.1 mM L-aspartic acid, 0.2 mM L-asparagine, and 0.4 mM glycine. The base medium was supplemented with 10% dialyzed FBS, penicillin-streptomycin, and amphotericin. To ensure an adequate supply of vitamin B6 (a crucial co-factor for de novo cysteine synthesis), base medium was supplemented with additional 20 μM vitamin B6. The control experimental medium was the base medium supplemented with 0.4 mM L-cysteine, 0.2 mM L-methionine, and 0.4 mM L-serine. The cysteine starvation (−Cys) experimental medium was base medium supplemented with 0.2 mM L-methionine and 0.4 mM L-serine.
Cells were seeded at 6×10^4 cells per well into 24-well plates (triplicate wells per condition) in the relevant complete medium and adhered for a full 24-hour period. A ‘time-0’ plate was included to record the starting cell number to calculate relative cell numbers. Cells were washed once with phosphate-buffered saline (PBS) before receiving experimental medium containing or lacking the specified amino acids, metabolites, or drugs. At the stated time-points the medium was removed, cells were fixed in a 4% formalin-PBS solution. Cells were then washed and stored in PBS before staining with 4′,6-diamidino-2-phenylindole (DAPI)-Triton™ X100-PBS solution for 1 hour, followed by storage in PBS at 4° C. until further analysis. DAPI-stained cell nuclei were detected via microscopy.
Homocysteine, cystathionine, glutathione, putrescine, spermine, spermidine, GPX4 inhibitor ML210, SMOX inhibitor MDL 72527, PAOX inhibitor diminazene aceturate, ferrostatin-1 and erastin were used. AMD1 inhibitor sardomozide/SAM486A, GPX4 inhibitor RSL3, and CSE inhibitor beta-cyano-L-alanine were used. […]

[2] = tested on: MTAP-deleted HCT116 cells; assay: Cell counting during cysteine starvation, MTAP-deleted HCT116; format: cell-based; conditions: −Cys, low levels of methionine

CSCC[C@H](N)C(=O)O [methionine]
restoration of proliferation during cysteine starvation [1]: no rescue
effect of methionine on survival during cysteine starvation [2]: inhibited the ability of MTAP deleted cells to survive
